Reference: article PMC2903464, “NPR-B natriuretic peptide receptors in human corneal epithelium: mRNA, immunohistochemistochemical, protein, and biochemical pharmacology studies” (Molecular Vision, 2010)

Target: T1, NPR-B (Homo sapiens, UniProt P20594)
T1 construct: gene NPR2; endogenous membrane guanylyl cyclase receptor in intact CEPI-17-CL4 cells; NPR-A also expressed; homodimer
T1 sequence (P20594 23-1047): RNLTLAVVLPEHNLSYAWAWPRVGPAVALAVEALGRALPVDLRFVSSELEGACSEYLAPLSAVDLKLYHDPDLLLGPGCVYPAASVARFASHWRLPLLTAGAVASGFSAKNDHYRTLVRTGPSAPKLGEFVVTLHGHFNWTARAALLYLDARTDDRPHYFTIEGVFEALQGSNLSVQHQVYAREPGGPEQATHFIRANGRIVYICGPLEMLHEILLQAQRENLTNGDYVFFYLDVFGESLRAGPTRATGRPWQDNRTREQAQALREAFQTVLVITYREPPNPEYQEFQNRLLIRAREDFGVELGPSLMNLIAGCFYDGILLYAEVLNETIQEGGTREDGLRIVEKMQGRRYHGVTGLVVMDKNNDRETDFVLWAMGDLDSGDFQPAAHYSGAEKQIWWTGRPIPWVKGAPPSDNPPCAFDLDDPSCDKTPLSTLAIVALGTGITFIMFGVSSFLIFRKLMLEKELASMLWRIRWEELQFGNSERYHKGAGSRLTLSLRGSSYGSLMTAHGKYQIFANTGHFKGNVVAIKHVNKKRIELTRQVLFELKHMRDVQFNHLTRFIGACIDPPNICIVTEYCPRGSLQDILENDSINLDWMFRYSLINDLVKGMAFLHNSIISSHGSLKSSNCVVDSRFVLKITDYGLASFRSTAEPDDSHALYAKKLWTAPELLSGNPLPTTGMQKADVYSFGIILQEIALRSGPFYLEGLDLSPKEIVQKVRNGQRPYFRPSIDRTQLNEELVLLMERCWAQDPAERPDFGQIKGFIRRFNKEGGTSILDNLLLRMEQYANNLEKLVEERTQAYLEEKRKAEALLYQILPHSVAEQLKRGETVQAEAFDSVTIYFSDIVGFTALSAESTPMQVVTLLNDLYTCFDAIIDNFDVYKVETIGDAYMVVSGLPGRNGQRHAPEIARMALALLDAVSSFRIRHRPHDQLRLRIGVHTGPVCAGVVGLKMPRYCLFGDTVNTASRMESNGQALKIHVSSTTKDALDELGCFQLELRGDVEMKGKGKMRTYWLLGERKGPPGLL
Experiment: inhibition of CNP fragment-induced cGMP accumulation in CEPI-17-CL4 cells, enzyme immunoassay
Format: cell-based
Conditions: 30 nM CNP fragment as agonist, 1 mM IBMX, 23 °C, 20 min pre-incubation; partial inhibition; native cells expressing NPR-A and NPR-B; compound described as NPR-A antagonist

Ki: 5.3 ± 1.7 µM
Structure (SMILES): O=C1Nc2ccccc2C1=O [isatin]
